Values joined by “and” are separate entries in the source; they are usually repeats but may differ in a detail not shown here. Identical values can stand only once. Toxic doses and inconclusive results are not listed. How the source made its calls: active means survival T/C of 150% or more; inactive means T/C below 125% in these data.
System: BDF1 mice, B16 melanoma ip, median survival T/C
Test: NCI In Vivo Anticancer Drug Screen. Data for tumor model B16 Melanoma (intraperitoneal) in B6D2F1 (BDF1) mice
Conditions: endpoint: median survival time, higher = longer survival
How it was run: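 Tumor-bearing mice received test compound or vehicle. Survival or tumor size was then measured in both groups. The treated-group figure was divided by the control-group figure.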

[1] = dose: 12.5 mg/kg/injection, schedule: Q01DX009 (ip), vehicle: saline
[2] = dose: 50.0 mg/kg/injection, schedule: Q01DX009 (ip), vehicle: saline with Tween-80
[3] = dose: 100.0 mg/kg/injection, schedule: Q01DX009 (ip), vehicle: saline with Tween-80
[4] = dose: 25.0 mg/kg/injection, schedule: Q01DX009 (ip), vehicle: Klucel (hydroxypropylcellulose) (HPC)
[5] = dose: 200.0 mg/kg/injection, schedule: Q01DX009 (ip), vehicle: saline with Tween-80
[6] = dose: 100.0 mg/kg/injection, schedule: Q01DX009 (ip), vehicle: Klucel (hydroxypropylcellulose) (HPC)
[7] = dose: 200.0 mg/kg/injection, schedule: Q01DX009 (ip), vehicle: Klucel (hydroxypropylcellulose) (HPC)
[8] = dose: 400.0 mg/kg/injection, schedule: Q01DX009 (ip), vehicle: Klucel (hydroxypropylcellulose) (HPC)
[9] = dose: 50.0 mg/kg/injection, schedule: Q01DX009 (ip), vehicle: Klucel (hydroxypropylcellulose) (HPC)

Measured: T/C

CN1CC[C@]23c4c5ccc(O)c4O[C@H]2C(=O)CC[C@H]3[C@H]1C5
inactive: dose: 12.5 mg/kg/injection, schedule: Q01DX005 (iv), vehicle: saline 86 % of control | [1] 94 % of control | dose: 25.0 mg/kg/injection, schedule: Q01DX005 (iv), vehicle: saline 111 % of control | dose: 25.0 mg/kg/injection, schedule: Q01DX009 (ip), vehicle: saline 98 % of control | dose: 50.0 mg/kg/injection, schedule: Q01DX005 (iv), vehicle: saline 95 % of control | dose: 50.0 mg/kg/injection, schedule: Q01DX009 (ip), vehicle: saline 100 % of control

OCCOCCN1CCN(CCCN2c3ccccc3Sc3ccc(C(F)(F)F)cc32)CC1
inactive: dose: 0.8 mg/kg/injection, schedule: Q01DX009 (ip), vehicle: saline 106 % of control | dose: 1.6 mg/kg/injection, schedule: Q01DX009 (ip), vehicle: saline 102 % of control | dose: 3.2 mg/kg/injection, schedule: Q01DX009 (ip), vehicle: saline 102 % of control | dose: 6.4 mg/kg/injection, schedule: Q01DX009 (ip), vehicle: saline 105 % of control | dose: 3.1 micrograms/kg/injection, schedule: Q01DX009 (ip), vehicle: saline 108 % of control | dose: 6.2 micrograms/kg/injection, schedule: Q01DX009 (ip), vehicle: saline 111 % of control | dose: 12.5 micrograms/kg/injection, schedule: Q01DX009 (ip), vehicle: saline 123 % of control | dose: 25.0 micrograms/kg/injection, schedule: Q01DX009 (ip), vehicle: saline 111 % of control | dose: 50.0 micrograms/kg/injection, schedule: Q01DX009 (ip), vehicle: saline 109 % of control | dose: 100.0 micrograms/kg/injection, schedule: Q01DX009 (ip), vehicle: saline 110 % of control | dose: 200.0 micrograms/kg/injection, schedule: Q01DX009 (ip), vehicle: saline 110 % of control | dose: 400.0 micrograms/kg/injection, schedule: Q01DX009 (ip), vehicle: saline 116 % of control

CCOC(=O)C(C)(Br)C(=O)OCC
inactive: dose: 25.0 mg/kg/injection, schedule: Q01DX009 (ip), vehicle: saline with Tween-80 110 % of control | dose: 25.0 mg/kg/injection, schedule: Q04DX003 (ip), vehicle: saline 115 % of control | [2] 102 % of control | dose: 50.0 mg/kg/injection, schedule: Q04DX003 (ip), vehicle: saline 118 % of control | [3] 95 % of control | dose: 100.0 mg/kg/injection, schedule: Q04DX003 (ip), vehicle: saline 118 % of control

NC(=O)N1CCN(CCCN2c3ccccc3Sc3cc(Cl)ccc32)CC1
inactive: dose: 3.12 mg/kg/injection, schedule: Q01DX009 (ip), vehicle: Klucel (hydroxypropylcellulose) (HPC) 92 % of control | dose: 6.25 mg/kg/injection, schedule: Q01DX009 (ip), vehicle: Klucel (hydroxypropylcellulose) (HPC) 98 % of control | dose: 12.5 mg/kg/injection, schedule: Q01DX009 (ip), vehicle: Klucel (hydroxypropylcellulose) (HPC) 101 % of control | [4] 106 % of control

COc1ccc([I+]c2ccccc2)cc1
inactive: dose: 0.75 mg/kg/injection, schedule: Q01DX009 (ip), vehicle: saline with Tween-80 95 % of control | dose: 1.5 mg/kg/injection, schedule: Q01DX009 (ip), vehicle: saline with Tween-80 97 % of control | dose: 3.0 mg/kg/injection, schedule: Q01DX009 (ip), vehicle: saline with Tween-80 102 % of control | dose: 6.0 mg/kg/injection, schedule: Q01DX009 (ip), vehicle: saline with Tween-80 93 % of control

COc1cc2c(cc1OC)/C(=N/N=C1\CCCc3cc(OC)c(OC)cc31)CCC2
inactive: dose: 1.56 mg/kg/injection, schedule: Q01DX009 (ip), vehicle: water 104 % of control | dose: 3.13 mg/kg/injection, schedule: Q01DX009 (ip), vehicle: water 100 % of control | dose: 6.25 mg/kg/injection, schedule: Q01DX009 (ip), vehicle: water 100 % of control | dose: 12.5 mg/kg/injection, schedule: Q01DX009 (ip), vehicle: water 95 % of control

Ic1ccccc1C[N+]12CN3CN(CN(C3)C1)C2
inactive: [2] 97 % of control | [3] 94 % of control | [5] 105 % of control

CC(=O)N(C)N=Nc1ccc(C)cc1
inactive: dose: 8.75 mg/kg/injection, schedule: Q01DX009 (ip), vehicle: Klucel (hydroxypropylcellulose) (HPC) 103 % of control | dose: 17.5 mg/kg/injection, schedule: Q01DX009 (ip), vehicle: Klucel (hydroxypropylcellulose) (HPC) 103 % of control

c1ccc(C2CCCCCC2)cc1
inactive: dose: 6.25 mg/kg/injection, schedule: Q01DX009 (ip), vehicle: other 108 % of control | dose: 12.5 mg/kg/injection, schedule: Q01DX009 (ip), vehicle: other 98 % of control | dose: 25.0 mg/kg/injection, schedule: Q01DX009 (ip), vehicle: other 111 % of control | dose: 50.0 mg/kg/injection, schedule: Q01DX009 (ip), vehicle: other 109 % of control | dose: 100.0 mg/kg/injection, schedule: Q01DX009 (ip), vehicle: other 89 % of control

O=C(c1ccc(O)cc1O)c1cccc2ccccc12
inactive: [6] 98 % of control | [7] 98 % of control | [8] 100 % of control

CCCCNC(=O)OCC(C)(CCC)COC(N)=O (configuration not stated)
inactive: [9] 92 % of control | [6] 92 % of control | [7] 94 % of control

COc1ccc(CCN2C(=O)CSC2=S)cc1OC
inactive: [4] 100 % of control | [9] 88 % of control | [2] 94 % of control and 98 % of control | [6] 89 % of control and 94 % of control | [3] 104 % of control | dose: 100.0 mg/kg/injection, schedule: Q04DX003 (ip), vehicle: saline with Tween-80 89 % of control | [5] 90 % of control and 94 % of control | dose: 200.0 mg/kg/injection, schedule: Q04DX003 (ip), vehicle: saline with Tween-80 94 % of control

ClC1CCC[N-]C1.ClC1CCC[N-]C1.[Cl][Pt+2][Cl] (configuration not stated)
inactive: dose: 0.78 mg/kg/injection, schedule: Q01DX009 (ip), vehicle: saline 100 % of control | dose: 1.56 mg/kg/injection, schedule: Q01DX009 (ip), vehicle: saline 95 % of control | dose: 3.13 mg/kg/injection, schedule: Q01DX009 (ip), vehicle: saline 96 % of control | dose: 6.25 mg/kg/injection, schedule: Q01DX009 (ip), vehicle: saline 100 % of control | [1] 95 % of control

COc1cc2c(=O)oc3c(OC)c(O)cc4c(=O)oc(c1OC)c2c34
inactive: dose: 4.0 mg/kg/injection, schedule: Q01DX009 (ip), vehicle: saline with Tween-80 100 % of control | dose: 8.0 mg/kg/injection, schedule: Q01DX009 (ip), vehicle: saline with Tween-80 94 % of control | dose: 16.0 mg/kg/injection, schedule: Q01DX009 (ip), vehicle: saline with Tween-80 96 % of control | dose: 32.0 mg/kg/injection, schedule: Q01DX009 (ip), vehicle: saline with Tween-80 90 % of control

NC(=O)C(CC(=O)OCc1ccccc1)NC(=O)OCc1ccccc1 (configuration not stated)
inactive: [6] 118 % of control | [7] 107 % of control | [8] 113 % of control

CCN1/C(=C/C(C)=C/c2sc3ccccc3[n+]2CC)Sc2ccccc21
inactive: dose: 0.03 mg/kg/injection, schedule: Q01DX009 (ip), vehicle: saline with Tween-80 104 % of control | dose: 0.05 mg/kg/injection, schedule: Q01DX009 (ip), vehicle: saline with Tween-80 100 % of control | dose: 0.1 mg/kg/injection, schedule: Q01DX009 (ip), vehicle: saline with Tween-80 100 % of control

CCN(CC)CCNc1ccc(CO)c2sc3ccccc3c(=O)c12
inactive: dose: 0.25 mg/kg/injection, schedule: Q01DX009 (ip), vehicle: saline 100 % of control | dose: 0.5 mg/kg/injection, schedule: Q01DX009 (ip), vehicle: saline 94 % of control | dose: 1.0 mg/kg/injection, schedule: Q01DX009 (ip), vehicle: saline 89 % of control | dose: 2.0 mg/kg/injection, schedule: Q01DX009 (ip), vehicle: saline 100 % of control | dose: 2.4 mg/kg/injection, schedule: Q01DX009 (ip), vehicle: saline with Tween-80 89 % of control | dose: 4.8 mg/kg/injection, schedule: Q01DX009 (ip), vehicle: saline with Tween-80 97 % of control | dose: 9.5 mg/kg/injection, schedule: Q01DX009 (ip), vehicle: saline with Tween-80 105 % of control | dose: 19.0 mg/kg/injection, schedule: Q01DX009 (ip), vehicle: saline with Tween-80 97 % of control | dose: 38.0 mg/kg/injection, schedule: Q01DX009 (ip), vehicle: saline with Tween-80 110 % of control

CC(C)(C)OC(=O)NCCCCC(NC(=O)OCc1ccccc1)C(=O)ON1C(=O)CCC1=O (configuration not stated)
inactive: [2] 98 % of control | [3] 92 % of control | [5] 87 % of control

— PubChem BioAssay AID192 (DTP/NCI, 2004)
